Legend:
[1] = tested on: standard panel of 12 tumor cell lines (NCI-H23, NCI-H522, MDA-MB-231, MDA-MB-435, SW-620, COLO 205, LOX, UACC-62, OVCAR-3, OVCAR-5, U251 and SF-295); assay: In vivo hollow fiber assay (HFA); parameters: species or system mice; conditions: out of 48; NSC 706744 at 100 and 150 mg/kg; conjugates at 12 and 18 (20k) or 9 and 12 (40k) mg/kg/dose IndQ equivalent
Protocol: A standard panel of 12 tumor cell lines is used for routine hollow fiber screening. These include NCI-H23, NCI-H522, MDA-MB-231, MDA-MB-435, SW-620, COLO 205, LOX, UACC-62, OVCAR-3, OVCAR-5, U251 and SF-295. A total of 3 different tumor lines are prepared for each experiment so that each mouse receives 3 intraperitoneal implants (1 of each tumor line) and 3 subcutaneous implants (1 of each tumor line). Each compound tested is administered by intraperitoneal injection at 2 dose levels. The percent net growth for each cell line in each treatment group is calculated and compared to the percent net growth in the vehicle treated controls. A 50% or greater reduction in percent net growth in the treated samples compared to the vehicle control samples is considered a positive result. […] A compound is considered for xenograft testing if it has a combined ip+sc score of 20 or greater, a sc score of 8 or greater, or produces cell death of any cell line at either dose level evaluated.
The in vivo hollow fiber assay (HFA) in mice was conducted per previously published methods using the 20 k ΔPEG-RNL9-IndQ at equivalent IndQ active doses of 12 and 18 mg/kg/dose and 40 k ΔPEG-RNL9-IndQ at equivalent IndQ active doses of 9 and 12 mg/kg/dose. For comparison, NSC 706744 (native or unmodified) was evaluated at doses of 100 and 150 mg/kg/dose which are the highest doses routinely tested.

[2] = tested on: standard panel of 12 tumor cell lines (NCI-H23, NCI-H522, MDA-MB-231, MDA-MB-435, SW-620, COLO 205, LOX, UACC-62, OVCAR-3, OVCAR-5, U251 and SF-295); conditions: historic data for comparison; cited from earlier work

Structure (SMILES)	score in IP fibers [1]	score in SC fibers [1]	Activity [2]	Cell Death [2]	IP + SC score [2]	IP score [2]	SC score [2]
COc1cc2c3c(n(CCCNCCO)c(=O)c2cc1OC)-c1cc2c(cc1C3=O)OCO2 [NSC 706744]	6/48	6/48					
CC(=O)O[C@H]1C(=O)[C@@]2(C)[C@H]([C@H](OC(=O)c3ccccc3)[C@]3(O)C[C@H](OC(=O)[C@H](O)[C@@H](NC(=O)c4ccccc4)c4ccccc4)C(C)=C1C3(C)C)[C@]1(OC(C)=O)CO[C@@H]1C[C@@H]2O [Taxol]			Active	Yes	42	36	6

— patent US20090156629A1, “INDENOISOQUINOLINE-RELEASABLE POLYMER CONJUGATES” (Enzon Pharmaceuticals, Inc., priority 2006, published 2009)
